Reference: US9902681B2, “N-3 immunoresolvents: structures and actions” (THE BRIGHAM AND WOMEN'S HOSPITAL, INC., priority 2013, dated 2018)

Assays:
neutrophil recruitment = assay: Zymosan peritonitis, neutrophil recruitment into the peritoneum; parameters: species or system mouse; settings: administered in vivo (as mixtures, FIG. 5); result in words
Method: FIG. 5. n-3 DPA immunoresolvents display potent anti-inflammatory actions in vivo. The indicated n-3 DPA-derived product mixtures were administered by intravenous injection 10 min prior to the intraperitoneal administration of zymosan (0.1 mg, 500 μl PBS) to 6-8-week-old male FvB mice. At 4 h, peritoneal exudates were collected and the (a) number of infiltrated neutrophils was assessed by light microscopy and flow cytometry. Exudate levels for the pro-inflammatory mediators (b) IL6 and (c) MCP-1 were determined by cytokine array. The ratio of RvD1n-3 DPA to RvD2n-3 DPA was ˜3:1 (A), the ratio of MaR1n-3 DPA to MaR2n-3 DPA was ˜4:1 (B); the ratio of RvD5n-3 DPA to PD1n-3 DPA was ˜9:1 (C). Results are mean±SEM. n=4 mice per group (*P<0.05; vs. vehicle group). Results are mean±SEM. n=4. *P<0.05, **P<0.01 vs. zymosan mice.
It was then determined whether these novel structures carried bioactivity.
Zymosan (0.1 mg) was injected intraperitoneally (i.p.) in 1 ml of sterile saline. Exudates were collected at 0, 4, 12 and 24 h post zymosan. Leukocyte numbers and differential counts in the peritoneal exudates were determined as in^16. In designated experiments, mice were administered intravenously (i.v): Vehicle (saline containing 0.1% EtOH), or the indicated mixture of n-3 DPA-derived products at 100 ng/mouse 5 min prior to i.p. zymosan administration (0.1 mg). After 4 h the exudates were collected and the number of extravasated neutrophils determined using Turks solution and flow cytometry as above.

[1] = system: infiltrated leukocytes into the lungs / lung tissue damage; assay: Murine hind limb ischemia reperfusion, second organ (lung) injury: histology and lung MPO; format: in vivo, mouse; settings: i.v. 10 min prior to reperfusion; RvD1 500 ng (FIG. 1) or 0.5 ng (Methods); result in words
Method: (a) Structures of DHA and n-3 DPA. (b) Ischemia was induced by applying tourniquets to the hind limb of 6-8-week-old male FvB mice. After 1 h, tourniquets were removed and reperfusion ensued for 3 h. 10 min prior to reperfusion, vehicle (saline containing 0.1% EtOH), RvD1 (500 ng) or a mixture of n-3 DPA-derived products (see Methods for details) were administered intravenously. At the end of reperfusion, lungs were collected; (c) tissue histology by H&E staining (×200) and (d) MPO levels were assessed. (e) Blood was collected, incubated with rat anti-mouse Ly6G and rat anti-mouse CD41 antibodies and neutrophil leukocyte aggregates were assessed by flow cytometry. (f) Plasma prostanoid and (g) leukotriene levels were assessed by lipid mediator metabololipidomics. Results are mean±SEM. n=4 mice per group. (*P<0.05; vs. vehicle group). Results c are representative n=4. Results d-e are mean±SEM. n=4. *P<0.05, **P<0.01 vs. vehicle mice. […]
Mice were anesthetized by intraperitoneal injection of a mixture of […]. […] The frozen lungs were homogenized from individual mice, centrifuged and the tissue myeloperoxidase (MPO) levels were determined using a mouse MPO ELISA (R&D Systems.).

[2] = system: human neutrophils adhering to TNF-α activated endothelial cells (HUVEC); assay: Human neutrophil-endothelial cell adhesion; format: cell-based; settings: 1 nM, 15 min, 37° C.; HUVEC stimulated with TNF-α 10 ng/ml, 4 h; vs vehicle
Method: (§1) FIG. 7. Reduction in human neutrophil chemotaxis, neutrophil-endothelia cell adhesion and stimulation of macrophage phagocytosis by n-3 DPA-derived immunoresolvents. (a) Left panel: micrographs depict PKH26-labeled neutrophils adherent to WGA-Alexafluor® 488-labeled HUVEC stimulated with TNF-α (10 ng/ml, 4 h, 37° C., 0.1% FCS) with or without n-3 DPA resolvins (1 nM, 15 min, 37° C., pH7.45; ×40 magnification). Right panel: Fluorescently labeled human neutrophils were incubated with vehicle (0.1% EtOH in PBS) or n-3 DPA products. These were then added to TNF-α-stimulated HUVEC and incubated for 30 min (37° C.), non-adherent cells were washed and extent of neutrophil adhesion assessed using a SpectraMax M3 Plate reader. (b) Neutrophils were incubated with vehicle (0.1% EtOH in PBS) or n-3 DPA products (1 nM, 15 min, 37° C., pH7.45) prior to loading on ChemoTx chambers and assessing chemotaxis towards IL-8 (100 ng/ml, 90 min, 37° C., pH7.45). […] After 60 min (37° C., pH7.45), the incubation was stopped, extracellular fluorescence quenched using trypan blue and phagocytosis assessed using a SpectraMax M3 Plate reader. […]
HUVEC were purchased from Lonza and cultured to passage 4. […] The plates were then washed with DPBS to remove non-adherent cells and the number of adherent neutrophils assessed using a Spectra Max M3 microplate reader.

human neutrophils = assay: Neutrophil chemotaxis towards IL-8 (ChemoTx); format: cell-based; settings: 1 nM, 15 min, 37° C.; IL-8 100 ng/ml, 90 min
Method: as §1, with “reader.” for “reader. (b) Neutrophils were incubated with vehicle (0.1% EtOH in PBS) or n-3 DPA products (1 nM, 15 min, 37° C., pH7.45) prior to loading on ChemoTx chambers and assessing chemotaxis towards IL-8 (100 ng/ml, 90 min, 37° C., pH7.45).”
Peripheral blood neutrophils were obtained from healthy volunteers as in^17. […] 2.5×10^4 cells were then added to the upper chamber of the ChemoTx System (3 μm pore size filter) and chemotaxis towards IL8 (100 ng/ml) was assessed (90 min, 37° C., 5% CO2). The number of cells migrated into the bottom chamber was determined using Alama Blue following manufacturer's instructions on a Spectra Max M3 microplate reader (Molecular Devices Inc., Sunnyvale, Calif.).

[3] = system: human monocyte-derived macrophages; assay: Macrophage phagocytosis of fluorescently labeled zymosan; format: cell-based; settings: 1 nM, 15 min, 37° C.; then labeled zymosan 60 min
Method: as §1
Macrophages were prepared and phagocytosis was assessed as in^16. […] Phagocytosis was assessed using an M3 SpectraMax plate reader.

Compound	neutrophil infiltration in murine peritonitis (neutrophil recruitment)	further results
CC/C=C\C/C=C\CC(O)C=CC=CC=CC(O)CCCCCC(=O)O (stereo not shown) [MaR1n-3 DPA, 7,14-dihydroxy-8,10,12,16Z,19Z-docosapentaenoic acid]	reduced neutrophil infiltration	
CC/C=C\CC(O)/C=C/C=CC=CC=CC(O)C(O)CCCCCC(=O)O (stereo not shown) [RvD1n-3 DPA, 7,8,17-trihydroxy-9,11,13,15E,19Z-docosapentaenoic acid]	reduced neutrophil infiltration	
CC/C=C\C/C=C\CC(O)C(O)C=CC=C/C=C\CCCCCC(=O)O (stereo not shown) [MaR2n-3 DPA, 13,14-dihydroxy-7Z,9,11,16Z,19Z-docosapentaenoic acid]	reduced neutrophil infiltration	
CC/C=C\C[C@H](O)/C=C/C=C\C=C\C=C\[C@@H](O)[C@@H](O)C/C=C\CCC(=O)O [RvD1, 7S,8R,17S-trihydroxy-4Z,9E,11E,13Z,15E,19Z-docosahexaenoic acid]		protection from secondary organ injury (lung tissue damage, infiltrated leukocytes) [1]: protection
CC/C=C\CC(O)C=CC=CC=CC(O)C/C=C\CCCCCC(=O)O (stereo not shown) [PD1n-3 DPA, 10,17-dihydroxy-7Z,11,13,15,19Z-docosapentaenoic acid]	reduced neutrophil infiltration	
CC/C=C\C[C@H](O)/C=C/C=C\C/C=C\C=C\[C@@H](O)CCCCCC(=O)O [RvD5n-3 DPA, 7,17-trihydroxy-8E,10,13,15E,19Z-docosapentaenoic acid]	reduced neutrophil infiltration	
CC/C=C\CC(O)C(O)/C=C/C=CC=CC=CC(O)CCCCCC(=O)O (stereo not shown) [RvD2n-3 DPA, 7,16,17-trihydroxy-8,10,12,14E, 19Z-docosapentaenoic acid]	reduced neutrophil infiltration	
CC/C=C\C[C@H](O)[C@H](O)/C=C/C=C/C=C\C=C\[C@@H](O)C/C=C\CCC(=O)O [RvD2, 7S,16R,17S-trihydroxy-4Z,8E,10Z,12E,14E,19Z-docosahexaenoic acid]		reduction in neutrophil adhesion to TNF-α activated endothelial cells [2]: ~30%; reduction in neutrophil chemotaxis towards an IL-8 gradient (human neutrophils): ~42%; increase in macrophage phagocytosis (uptake) of zymosan [3]: ~50%
